From EP2823816A1, “Inhibitors of Neuropilin and use thereof for the treatment of Neuropilin-related diseases” (Tragex Pharma, priority 2013, dated 2015) come the findings set out here.

Assay [1] deals with HUVEC cells. Kind of assay: Tube formation assay. Format: cell-based. Conditions: HUVEC on collagen, VEGF-A165-stimulation, Figure 2. As to the method:
Collagen type I (1 mg/ml, BD) was mixed with 0.1N NaOH, 0.1% bicarbonate and 10X in medium EBM-2 and kept on ice until placed into the wells. The assay was prepared in 96-well plate format and the bottom layer of collagen was formed by adding 70 µL of the solution per well and allowing subsequent gelation at 37°C for 30 min. The HUVEC cells were then seeded on collagen at […] cells per well. After monolayer formation (one day), a second layer of collagen 200 µL per well was prepared according to the same protocol and gently placed on top of the cell layer. The compounds of the invention were added to the cells at the adhesion step (concentration corresponding to the Inhibitory Concentration 50 (IC50)). After 24 and 48 h of incubation at 37°C, tube formation was observed and pictures were taken.

In assay [2] the test system is HUVEC cells. Kind of assay: WST-1 proliferation assay. Conditions: in vitro, Figure 1B. Format: cell-based. The procedure: (§1) After observation of cells under the microscope, old media were removed and the adherent cells washed gently twice with PBS (Phosphate Buffer Saline, -Ca^2+, -Mg^2+, Lonza cat n°: 17-512F/12). All cells were detached with 3 ml of trypsin/EDTA (chelator of calcium and magnesium ions) (Lonza), incubated for 5 min at 37°C, and examined using a microscope to ensure that the cells were detached and floating. Then, 3 ml TNS (Trypsin Neutralizing Solution, Lonza, France, cat n° CC-5002) or of culture medium were added to inactivate the trypsin, and the cell suspension was transferred in a falcon tube and centrifuged for 7 min at 1400 rpm. The supernatant was removed and the cell pellet resuspended in […] of culture medium. 50 µL of this solution were transferred in 20 µL of isotonic solution and the cells were counted by count cellular (Beckman Coulter). […]
(§2) The cell proliferation WST-1 assay is a colorimetric assay for the quantification of cell proliferation and viability, based on the enzymatic cleavage of the tetrazolium salt WST-1 added to the culture medium, to a water soluble colored formazan dye, detected by absorbance at 450 nm, by mitochondrial succinate-tetrazoliumreductase in viable cells. […]

The test system of the next assay is MDA-MB-231. Kind of assay: WST-1 proliferation / cytotoxic test. It counts as cell-based, human. Conditions: for IC50: Homo sapiens. The procedure: as §1, §2
After an incubation period of 72 h, at day 4, were prepared the 19 mL medium with reagent WST-1 1mL (10 mL WST-1 in 200 mL well). […] The cells were incubated at 37°C in a humidified atmosphere of 5% CO2 for 1h30 and the absorbance at 450-655 nm was measured by Microplate Manager 5.2 (Bio-Rad).

A further assay concerns MDA-MB-231 cancer cells. Kind of assay: Motility assay (videomicroscopy). Format: cell-based, human. The following applies: MDA-MB-231, 24 h, at the IC50 of the proliferation assay, Figure 4. As to the method: Endothelial cells (HUVEC) and breast cancer cells (MDA-MB-231) were seeded in 35 mm diameter tissue culture dishes at 3×10^4 and 6×10^4 cells per dish respectively and treated separately with DMSO (control) and compound 1 of the invention (treatment) for 24 h, at the concentration of IC50 obtained with the proliferation assay.
The dishes were placed in an enclosed warming incubator on the motorized stage of a computer-controlled Eclipse Ti inverted microscope (Nikon Instruments Europe) equipped with a CCD Cool- SNAP HQ2 camera (Roper Scientific, USA) and a PC workstation. The incubator allowed samples to be kept at 37°C in a humidified atmosphere containing 5% CO2, 95% air. Phase images were recorded at 100× every 5 min simultaneously over several fields from 0 till 24 h (288 frames). Cell motility was tracked and analyzed for at least 25 cells in each field over three independent experiments. The total distance of migration and the speed of migration were analyzed. The degree of persistence of movement was defined as the ratio between the linear distance and the total distance covered by the cells. Image acquisition and analyses were carried out using Metamorph7 software (Universal Imaging).

The test system of assay [3] is MDA-MB-231 + shRNA directed to NRP1. In words: Proliferation assay in shRNA-transfected cells. It counts as cell-based. The following applies: Homo sapiens; inhibition of proliferation; clone MDA-MB-231 + shRNA directed to NRP1. From the text:
(§3) The cell proliferation WST-1 assay is a colorimetric assay for the quantification of cell proliferation and viability, based on the enzymatic cleavage of the tetrazolium salt WST-1 added to the culture medium, to a water soluble colored formazan dye, detected by absorbance at 450 nm, by mitochondrial succinate-tetrazoliumreductase in viable cells. An augmentation in enzyme activity will then lead to an increase in the amount of formazan dye formed, which directly correlates to the number of metabolically active cells in the culture.
(§4) After an incubation period of 72 h, at day 4, were prepared the 19 mL medium with reagent WST-1 1mL ([…]). The medium was removed from the 96 microplate and 200 µL of solution WST-1/medium were added for each well. The cells were incubated at 37°C in a humidified atmosphere of 5% CO2 for 1h30 and the absorbance at 450-655 nm was measured by Microplate Manager 5.2 (Bio-Rad).
(§5) The effect of compound 1 of the invention on cell proliferation was tested according to the proliferation assay hereinabove described, in MDA-MB-231 cancer cells transfected with shRNA directed to NRP1 or NRP2 or with control shRNA.

Assay [4] concerns MDA-MB-231 + shRNA directed to NRP2. Kind of assay: Proliferation assay in shRNA-transfected cells. Conditions: Homo sapiens; inhibition of proliferation; clone MDA-MB-231 + shRNA directed to NRP2. Format: cell-based.
Excerpt: as §3, §4, §5

With `CCOc1ccccc1NC(=O)c1ccc(C)c(S(=O)(=O)Nc2ccc(C)cc2)c1` [Compound 1, N-(2-ethoxyphenyl)-4-methyl-3-(N-(p-tolyl)sulfamoyl)benzamide], the “formation of new blood vessels (tube formation)” value in the assay on HUVEC cells [1] is given as “effectively inhibits the formation of new blood vessels”. For the same compound, the “proliferation of HUVEC cells” value with HUVEC cells [2] was “inhibited”. For the same compound, the IC50 in the assay on MDA-MB-231 (Breast, MDA-MB-231, wst-1 cytotoxic test, 72 h) was 0.7 ± 0.08 µM; in the assay on MDA-MB-231 (inhibition of proliferation, clone MDA-MB-231 (Table 2)), 0.7 ± 0.05 µM; in assay [3], 9 ± 0.08 µM; in assay [4], 10 ± 0.05 µM. Also, the “proliferation of MDA-MB-231 cells” value in the assay on MDA-MB-231 (in vitro, Figure 3B) is listed as “inhibits”. The “motility of cancer cells (migration speed)” value in the assay with MDA-MB-231 cancer cells was “significant anti-migratory effect”.
